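Five compound concentrations were applied to cells in 96-well plates for 48 hours; endpoints were derived by simple linear interpolation of the resulting dose-response curve. Abbreviation: GI50, concentration required for 50% inhibition of growth.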 Calls of active or inactive are those of the source. Rule as the data show it: active = GI50 up to about 1.1 µM and inactive = higher.
Assays:
Assay in all cases: NCI anticancer screen, dose series, 48 h
MDA-MB-435 = tested on: MDA-MB-435
BT-549 = tested on: BT-549
OVCAR-4 = tested on: OVCAR-4
M14 = tested on: M14
HOP-62 = tested on: HOP-62
OVCAR-8 = tested on: OVCAR-8
SN12C = tested on: SN12C
SW-620 = tested on: SW-620
Malme-3M = tested on: Malme-3M
HCC 2998 = tested on: HCC 2998
KM12 = tested on: KM12
NCI-H522 = tested on: NCI-H522
UO-31 = tested on: UO-31
A549 = tested on: A549
UACC-257 = tested on: UACC-257
EKVX = tested on: EKVX
MDA-N = tested on: MDA-N
NCI/ADR-RES = tested on: NCI/ADR-RES
HT-29 = tested on: HT-29

COC(=O)CCCCC/C(=C\C(=O)C(Cl)(Cl)Cl)OC
GI50 (MDA-MB-435): 22.9 µM (inactive)
GI50 (BT-549): 38.9 µM (inactive)
GI50 (OVCAR-4): 19.5 µM (inactive)
GI50 (M14): 31.1 µM (inactive)
GI50 (HOP-62): 33.7 µM (inactive)
GI50 (OVCAR-8): 25.4 µM (inactive)
GI50 (SN12C): 33.5 µM (inactive)
GI50 (SW-620): 31.7 µM (inactive)
GI50 (Malme-3M): 21.1 µM (inactive)
GI50 (HCC 2998): 15.9 µM (inactive)
GI50 (KM12): 26.4 µM (inactive)
GI50 (NCI-H522): 16.6 µM (inactive)
GI50 (UO-31): 84.5 µM (inactive)
GI50 (A549): 45.6 µM (inactive)
GI50 (UACC-257): 21.8 µM (inactive)
GI50 (EKVX): 24.7 µM (inactive)
GI50 (MDA-N): 24 µM (inactive)
GI50 (NCI/ADR-RES): 30.5 µM (inactive)
GI50 (HT-29): 30.5 µM (inactive)

COc1ccc([C@@]23Oc4cc(OC)cc(OC)c4[C@]2(O)[C@H](O)[C@H](C(N)=O)[C@H]3c2ccccc2)cc1 [DIDESMETHYLROCAGLAMIDE]
GI50 (MDA-MB-435): < 0.01 µM (active)
GI50 (BT-549): < 0.0112 µM (active)
GI50 (OVCAR-4): < 0.0126 µM (active)
GI50 (M14): < 0.01 µM (active)
GI50 (HOP-62): < 0.01 µM (active)
GI50 (OVCAR-8): < 0.01 µM (active)
GI50 (SN12C): < 0.01 µM (active)
GI50 (SW-620): < 0.01 µM (active)
GI50 (Malme-3M): < 0.01 µM (active)
GI50 (HCC 2998): < 0.01 µM (active)
GI50 (KM12): < 0.01 µM (active)
GI50 (NCI-H522): < 0.01 µM (active)
GI50 (UO-31): < 0.0161 µM (active)
GI50 (A549): < 0.01 µM (active)
GI50 (UACC-257): < 0.0162 µM (active)
GI50 (EKVX): < 0.0106 µM (active)
GI50 (MDA-N): < 0.01 µM (active)
GI50 (NCI/ADR-RES): 0.0656 µM (active)
GI50 (HT-29): < 0.01 µM (active)

COc1ccc(Cn2c(=O)c(OC)c(C)c3cc4ccccc4cc32)cc1
GI50 (MDA-MB-435): 28.1 µM (inactive)
GI50 (BT-549): 34.3 µM (inactive)
GI50 (OVCAR-4): 20.2 µM (inactive)
GI50 (M14): 41.2 µM (inactive)
GI50 (HOP-62): 45.6 µM (inactive)
GI50 (OVCAR-8): 27.9 µM (inactive)
GI50 (SN12C): 19.8 µM (inactive)
GI50 (SW-620): 32.5 µM (inactive)
GI50 (Malme-3M): 21.1 µM (inactive)
GI50 (HCC 2998): 29 µM (inactive)
GI50 (KM12): 26.5 µM (inactive)
GI50 (NCI-H522): 21.4 µM (inactive)
GI50 (UO-31): 39.2 µM (inactive)
GI50 (A549): 34.4 µM (inactive)
GI50 (UACC-257): 2.99 µM (inactive)
GI50 (EKVX): 6.55 µM (inactive)
GI50 (MDA-N): 34.3 µM (inactive)
GI50 (NCI/ADR-RES): 22.1 µM (inactive)
GI50 (HT-29): 31.4 µM (inactive)

COC(=O)c1cc(C(=CCC[C@H]2CC[C@@]3(C)C(CCC4C3CC[C@@]3(C)C4CC[C@@H]3C(C)CCCC(C)C)C2)c2cc(Cl)c(O)c(C(=O)OC)c2)cc(Cl)c1O (stereo partly drawn)
GI50 (MDA-MB-435): > 10 µM (inactive)
GI50 (BT-549): > 10 µM (inactive)
GI50 (OVCAR-4): > 10 µM (inactive)
GI50 (M14): > 10 µM (inactive)
GI50 (HOP-62): > 10 µM (inactive)
GI50 (OVCAR-8): > 10 µM (inactive)
GI50 (SN12C): > 10 µM (inactive)
GI50 (SW-620): > 10 µM (inactive)
GI50 (Malme-3M): > 10 µM (inactive)
GI50 (HCC 2998): > 10 µM (inactive)
GI50 (KM12): > 10 µM (inactive)
GI50 (NCI-H522): > 10 µM (inactive)
GI50 (UO-31): > 10 µM (inactive)
GI50 (A549): > 10 µM (inactive)
GI50 (UACC-257): > 10 µM (inactive)
GI50 (EKVX): > 10 µM (inactive)
GI50 (MDA-N): > 10 µM (inactive)
GI50 (NCI/ADR-RES): > 10 µM (inactive)
GI50 (HT-29): > 10 µM (inactive)

CCOC(=O)c1cc(C2=CCNC2=O)c(-c2cc(C)no2)[nH]1
GI50 (MDA-MB-435): > 100 µM (inactive)
GI50 (BT-549): > 100 µM (inactive)
GI50 (OVCAR-4): 49.5 µM (inactive)
GI50 (M14): 51.1 µM (inactive)
GI50 (HOP-62): 73.3 µM (inactive)
GI50 (OVCAR-8): 45 µM (inactive)
GI50 (SN12C): > 100 µM (inactive)
GI50 (SW-620): 80.2 µM (inactive)
GI50 (Malme-3M): > 100 µM (inactive)
GI50 (HCC 2998): > 100 µM (inactive)
GI50 (KM12): 59.8 µM (inactive)
GI50 (NCI-H522): 16.7 µM (inactive)
GI50 (UO-31): 27.7 µM (inactive)
GI50 (A549): 37.4 µM (inactive)
GI50 (UACC-257): > 100 µM (inactive)
GI50 (EKVX): 59.4 µM (inactive)
GI50 (MDA-N): 94.6 µM (inactive)
GI50 (NCI/ADR-RES): 30.5 µM (inactive)
GI50 (HT-29): 43.5 µM (inactive)

O=c1c2ncn(C3CCCCO3)c2n(-c2ccccc2)c(=S)n1-c1ccccc1 (stereo not drawn)
GI50 (MDA-MB-435): > 67.6 µM (inactive)
GI50 (BT-549): 23 µM (inactive)
GI50 (OVCAR-4): 40.4 µM (inactive)
GI50 (M14): > 92.5 µM (inactive)
GI50 (HOP-62): 10.4 µM (inactive)
GI50 (OVCAR-8): 19 µM (inactive)
GI50 (SN12C): 56.6 µM (inactive)
GI50 (SW-620): > 65.9 µM (inactive)
GI50 (Malme-3M): > 41.5 µM (inactive)
GI50 (HCC 2998): > 70 µM (inactive)
GI50 (KM12): > 76.4 µM (inactive)
GI50 (NCI-H522): 39.6 µM (inactive)
GI50 (UO-31): 35.1 µM (inactive)
GI50 (A549): 78 µM (inactive)
GI50 (UACC-257): 61.9 µM (inactive)
GI50 (EKVX): 39.5 µM (inactive)
GI50 (MDA-N): > 66.1 µM (inactive)
GI50 (NCI/ADR-RES): 30.1 µM (inactive)
GI50 (HT-29): > 76.4 µM (inactive)

COC(=O)c1ccccc1CC1Cc2ccc3c(c2C1)CCC3 (stereo not drawn)
GI50 (MDA-MB-435): 22.9 µM (inactive)
GI50 (BT-549): 60.8 µM (inactive)
GI50 (OVCAR-4): 24.2 µM (inactive)
GI50 (M14): 33.9 µM (inactive)
GI50 (HOP-62): 38.9 µM (inactive)
GI50 (OVCAR-8): 34.5 µM (inactive)
GI50 (SN12C): 39.6 µM (inactive)
GI50 (SW-620): 39.4 µM (inactive)
GI50 (Malme-3M): 19.4 µM (inactive)
GI50 (HCC 2998): 23.8 µM (inactive)
GI50 (KM12): 30.1 µM (inactive)
GI50 (NCI-H522): 17.7 µM (inactive)
GI50 (UO-31): 37 µM (inactive)
GI50 (A549): 30.3 µM (inactive)
GI50 (UACC-257): 10.4 µM (inactive)
GI50 (EKVX): 17.3 µM (inactive)
GI50 (MDA-N): 34 µM (inactive)
GI50 (NCI/ADR-RES): 21 µM (inactive)
GI50 (HT-29): 20 µM (inactive)
